According to ChEMBL document CHEMBL5143691, “Lead optimization of pyrido[2,3-d][1]benzazepin-6-one derivatives leading to the discovery of a potent, selective, and orally available human parathyroid hormone receptor 1 (hPTHR1) antagonist (DS69910557)” (Bioorg Med Chem, 2022):
In brackets after ≈: the same amount, converted by molar mass.

Legend:
[1] = Metabolic stability in rat liver microsomes assessed as compound remaining at 1 uM incubated for 30 mins in presence of NADPH by LC-MS/MS analysis
physchem [2] = details: JP1 fluid, pH 1.2
[3] = molecular target: T1, Parathyroid hormone/parathyroid hormone-related peptide receptor (Homo sapiens, UniProt Q03431); test: Antagonist activity against human PTHR1 expressed in CHO-K1 cells assessed as reduction in PTH induced cAMP level incubated for 30 mins in presence of IBMX by cAMP assay
T1 sequence (Q03431 whole entry): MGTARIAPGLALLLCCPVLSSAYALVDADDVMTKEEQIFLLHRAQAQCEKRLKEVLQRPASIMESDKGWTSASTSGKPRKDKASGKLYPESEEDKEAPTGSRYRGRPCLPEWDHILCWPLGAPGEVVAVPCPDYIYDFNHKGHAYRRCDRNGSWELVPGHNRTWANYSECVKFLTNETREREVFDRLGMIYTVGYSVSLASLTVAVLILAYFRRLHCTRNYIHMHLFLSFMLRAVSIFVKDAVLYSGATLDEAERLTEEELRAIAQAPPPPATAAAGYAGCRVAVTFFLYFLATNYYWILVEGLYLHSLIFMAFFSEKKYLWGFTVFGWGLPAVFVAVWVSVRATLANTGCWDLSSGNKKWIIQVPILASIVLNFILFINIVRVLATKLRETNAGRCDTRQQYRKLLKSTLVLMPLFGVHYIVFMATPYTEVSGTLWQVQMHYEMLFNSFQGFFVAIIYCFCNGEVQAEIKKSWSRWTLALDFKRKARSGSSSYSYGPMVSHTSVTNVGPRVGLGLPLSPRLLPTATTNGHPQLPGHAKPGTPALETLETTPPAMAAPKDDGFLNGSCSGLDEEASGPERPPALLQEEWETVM

physchem [4] = details: JP2 fluid, pH 6.8
hERG (KCNH2) = hERG (KCNH2) (Homo sapiens, UniProt Q12809); test: Inhibition of human ERG potassium channel expressed in CHO-K1 cells at 3 uM incubated for 5 mins by patch clamp assay; assay type: toxicity, cell-based; details: CHO-K1 cells expressing human ERG potassium channel
CYP2C19 = CYP2C19 (Homo sapiens, UniProt P33261); test: Inhibition of CYP2C19 (unknown origin) at 10 uM relative to control; assay type: ADME
CYP1A2 = molecular target: T2, CYP1A2 (Homo sapiens, UniProt P05177); test: Inhibition of CYP1A2 (unknown origin) at 10 uM relative to control; assay type: ADME
T2 sequence (P05177 whole entry): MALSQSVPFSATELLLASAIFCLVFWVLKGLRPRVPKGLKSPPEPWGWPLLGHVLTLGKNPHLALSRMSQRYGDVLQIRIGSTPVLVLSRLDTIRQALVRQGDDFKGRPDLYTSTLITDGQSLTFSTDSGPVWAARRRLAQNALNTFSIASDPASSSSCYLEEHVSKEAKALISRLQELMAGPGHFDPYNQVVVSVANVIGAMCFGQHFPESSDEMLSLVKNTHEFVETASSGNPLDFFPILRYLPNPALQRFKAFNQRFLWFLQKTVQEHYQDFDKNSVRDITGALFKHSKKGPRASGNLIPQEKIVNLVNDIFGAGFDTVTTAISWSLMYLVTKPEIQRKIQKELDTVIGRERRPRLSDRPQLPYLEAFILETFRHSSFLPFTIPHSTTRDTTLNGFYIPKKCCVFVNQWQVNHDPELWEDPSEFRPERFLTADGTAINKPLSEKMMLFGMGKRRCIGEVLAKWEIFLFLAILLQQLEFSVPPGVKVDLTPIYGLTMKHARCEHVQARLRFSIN

CYP2C8 = molecular target: T3, CYP2C8 (Homo sapiens, UniProt P10632); test: Inhibition of CYP2C8 (unknown origin) at 10 uM relative to control; assay type: ADME
T3 sequence (P10632 whole entry): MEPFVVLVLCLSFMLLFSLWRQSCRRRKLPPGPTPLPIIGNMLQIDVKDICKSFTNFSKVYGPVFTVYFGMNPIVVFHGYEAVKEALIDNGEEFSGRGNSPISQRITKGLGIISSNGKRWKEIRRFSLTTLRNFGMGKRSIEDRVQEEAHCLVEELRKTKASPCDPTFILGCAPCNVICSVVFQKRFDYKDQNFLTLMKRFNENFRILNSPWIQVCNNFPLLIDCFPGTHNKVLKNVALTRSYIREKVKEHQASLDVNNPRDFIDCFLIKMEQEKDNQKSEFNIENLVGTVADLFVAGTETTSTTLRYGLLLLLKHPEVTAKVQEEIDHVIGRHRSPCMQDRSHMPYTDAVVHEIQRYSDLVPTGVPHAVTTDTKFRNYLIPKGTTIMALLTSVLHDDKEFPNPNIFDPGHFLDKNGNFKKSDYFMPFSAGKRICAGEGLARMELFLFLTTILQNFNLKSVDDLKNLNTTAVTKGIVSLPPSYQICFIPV

CYP2D6 = CYP2D6 (Homo sapiens, UniProt P10635); test: Inhibition of CYP2D6 (unknown origin) at 10 uM relative to control; assay type: ADME
in vivo = details: Sprague-Dawley, rat, po, 5 mg/kg
[5] = AUClast in Sprague-Dawley rat at 5 mg/kg, po by LC-MS/MS analysis; details: in vivo
[6] = Distribution coefficient, log D of compound in 1-octanol and aqueous phosphate buffered saline at pH 7.4 incubated for 30 mins by HPLC-MS analysis; details: 1-octanol/phosphate buffered saline

Chain of hERG (KCNH2) (Q12809 whole entry): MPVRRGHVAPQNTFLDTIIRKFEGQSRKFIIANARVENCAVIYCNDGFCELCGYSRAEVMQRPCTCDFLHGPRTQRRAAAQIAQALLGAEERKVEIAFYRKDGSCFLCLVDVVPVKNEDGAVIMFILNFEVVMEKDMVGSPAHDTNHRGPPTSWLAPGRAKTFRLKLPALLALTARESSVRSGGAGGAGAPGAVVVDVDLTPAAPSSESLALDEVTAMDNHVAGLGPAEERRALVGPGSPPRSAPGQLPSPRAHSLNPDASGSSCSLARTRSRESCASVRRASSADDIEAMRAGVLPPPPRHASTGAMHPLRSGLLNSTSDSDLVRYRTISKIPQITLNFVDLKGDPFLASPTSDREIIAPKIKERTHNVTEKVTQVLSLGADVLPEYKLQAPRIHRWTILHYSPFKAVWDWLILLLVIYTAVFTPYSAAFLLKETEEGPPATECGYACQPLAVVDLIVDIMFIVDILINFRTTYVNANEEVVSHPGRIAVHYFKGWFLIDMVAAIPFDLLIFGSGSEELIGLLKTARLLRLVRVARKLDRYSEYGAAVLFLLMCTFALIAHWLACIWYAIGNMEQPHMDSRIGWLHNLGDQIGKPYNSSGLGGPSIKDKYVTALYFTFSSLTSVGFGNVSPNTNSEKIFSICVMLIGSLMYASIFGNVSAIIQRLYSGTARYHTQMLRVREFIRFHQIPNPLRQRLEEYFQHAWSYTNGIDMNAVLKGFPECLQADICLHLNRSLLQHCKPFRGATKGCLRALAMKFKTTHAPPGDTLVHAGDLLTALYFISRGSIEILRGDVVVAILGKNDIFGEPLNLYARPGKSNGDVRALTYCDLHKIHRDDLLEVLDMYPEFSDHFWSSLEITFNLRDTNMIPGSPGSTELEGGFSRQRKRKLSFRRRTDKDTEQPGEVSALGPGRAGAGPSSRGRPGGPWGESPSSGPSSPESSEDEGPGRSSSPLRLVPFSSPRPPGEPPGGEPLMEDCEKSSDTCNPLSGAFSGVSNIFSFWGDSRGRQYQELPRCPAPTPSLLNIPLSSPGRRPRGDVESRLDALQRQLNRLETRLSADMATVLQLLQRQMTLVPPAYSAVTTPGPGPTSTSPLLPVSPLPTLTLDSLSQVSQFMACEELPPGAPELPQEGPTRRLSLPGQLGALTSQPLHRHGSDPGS
Chain of CYP2D6 (P10635 whole entry): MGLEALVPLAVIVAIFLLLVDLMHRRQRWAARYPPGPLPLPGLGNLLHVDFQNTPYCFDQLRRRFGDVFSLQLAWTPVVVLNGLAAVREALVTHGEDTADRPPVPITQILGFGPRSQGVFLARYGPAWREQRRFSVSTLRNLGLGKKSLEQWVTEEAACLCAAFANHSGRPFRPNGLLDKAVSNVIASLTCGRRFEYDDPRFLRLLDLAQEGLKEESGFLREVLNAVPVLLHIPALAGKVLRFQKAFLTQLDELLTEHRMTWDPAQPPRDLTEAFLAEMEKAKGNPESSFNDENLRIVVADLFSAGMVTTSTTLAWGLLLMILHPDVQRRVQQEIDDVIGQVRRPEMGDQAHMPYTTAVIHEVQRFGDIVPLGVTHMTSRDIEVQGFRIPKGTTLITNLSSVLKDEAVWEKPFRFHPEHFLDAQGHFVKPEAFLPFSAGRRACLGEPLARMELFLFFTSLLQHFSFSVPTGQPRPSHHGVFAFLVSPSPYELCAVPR
Chain of CYP2C19 (P33261 whole entry): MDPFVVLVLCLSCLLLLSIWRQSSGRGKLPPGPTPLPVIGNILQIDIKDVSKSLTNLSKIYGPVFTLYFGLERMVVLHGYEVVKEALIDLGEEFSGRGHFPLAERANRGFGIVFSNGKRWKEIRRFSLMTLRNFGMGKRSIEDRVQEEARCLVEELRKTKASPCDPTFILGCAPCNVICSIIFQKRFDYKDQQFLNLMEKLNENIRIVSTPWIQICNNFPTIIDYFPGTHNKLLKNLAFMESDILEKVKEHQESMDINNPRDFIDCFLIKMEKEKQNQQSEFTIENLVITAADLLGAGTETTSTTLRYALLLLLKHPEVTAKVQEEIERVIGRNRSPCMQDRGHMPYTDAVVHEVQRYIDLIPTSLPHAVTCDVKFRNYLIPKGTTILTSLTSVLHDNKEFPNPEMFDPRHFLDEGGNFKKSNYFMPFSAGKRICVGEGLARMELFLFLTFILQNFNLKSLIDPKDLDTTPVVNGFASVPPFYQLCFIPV

## CC1(C)C(=O)N(c2ccc(N3CC(O)(CNC4CCOCC4)C3)cc2)c2cc(Cl)ccc2-c2cc(Cl)cnc21
[1]
  remaining at 0.5 h, 1 µM: 82%
Physchem [2]
  solubility at 4 h: 940 µg/mL (≈ 1660 µM)
[3]
  IC50: 840 nM
Physchem [4]
  solubility at 4 h: 88 µg/mL (≈ 155 µM)

## COC(=O)C1(CNC2CCOCC2)CN(c2ccc(N3C(=O)C(C)(C)c4ncc(Cl)cc4-c4ccc(Cl)cc43)cc2)C1
[1]
  remaining at 0.5 h, 1 µM: 23%
Physchem [2]
  solubility at 4 h: 160 µg/mL (≈ 262 µM)
[3]
  IC50: 110 nM
Physchem [4]
  solubility at 4 h: 0.7 µg/mL (≈ 1.15 µM)

## COC1(CN(C)C2CCOCC2)CN(c2ccc(N3C(=O)C(C)(C)c4ncc(Cl)cc4-c4ccc(Cl)cc43)cc2)C1
[1]
  remaining at 0.5 h, 1 µM: 23%
Physchem [2]
  solubility at 4 h: 530 µg/mL (≈ 890 µM)
[3]
  IC50: 780 nM
Physchem [4]
  solubility at 4 h: 2.5 µg/mL (≈ 4.2 µM)

## CC1(C)C(=O)N(c2ccc(N3CC(CN[C@H]4CC[C@H](C(=O)O)CC4)C3)cc2)c2cc(Cl)ccc2-c2cc(Cl)cnc21
hERG (KCNH2)
  inhibition at 5 min, 3 µM: 0%

## CC1(C)C(=O)N(c2ccc(N3CC(CNC4CCOCC4)(C(=O)O)C3)cc2)c2cc(Cl)ccc2-c2cc(Cl)cnc21
[1]
  remaining at 0.5 h, 1 µM: 93%
Physchem [2]
  solubility at 4 h: 100 µg/mL (≈ 168 µM)
[3]
  IC50: 23000 nM
Physchem [4]
  solubility at 4 h: 97 µg/mL (≈ 163 µM)

## COC1(CN[C@H]2CC[C@H](C(=O)O)CC2)CN(c2ccc(N3C(=O)C(C)(C)c4ncc(Cl)cc4-c4ccc(Cl)cc43)cc2)C1
hERG (KCNH2)
  inhibition at 5 min, 3 µM: 0%

## CC1(C)C(=O)N(c2ccc(N3CC(F)(CN[C@H]4CC[C@H](C(=O)O)CC4)C3)cc2)c2cc(Cl)ccc2-c2cc(Cl)cnc21
CYP2C19
  inhibition at 10 µM: < 50%
hERG (KCNH2)
  inhibition at 5 min, 3 µM: 2%
CYP1A2
  inhibition at 10 µM: < 50%
CYP2C8
  inhibition at 10 µM: < 50%
CYP2D6
  inhibition at 10 µM: < 50%

## CC1(C)C(=O)N(c2ccc(N3CC(F)(CNC45CCC(C(=O)O)(CC4)CC5)C3)cc2)c2cc(Cl)ccc2-c2cc(Cl)cnc21
[1]
  remaining at 0.5 h, 1 µM: 97%
In vivo
  Cmax: 900 ng/mL
[5]
  AUC(0-t): 11900 ng·h/mL
[3]
  IC50: 90 nM
[6]
  logD at 0.5 h: 2.8
